Results as given in article PMC12373846, “Hemoglobin as a pseudoperoxidase and drug target for oxidative stress-related diseases” (Signal Transduction and Targeted Therapy, 2025).

Experiments:
A53T mice = test: Immunohistochemistry of SNpc, A53T mice; format: in vivo, mouse; conditions: for mean GABA intensity in GFAP-positive areas: Fig. 4k; for TH-positive neuron counts per hemisphere: Fig. 4l
Method: Stereotaxic injections were performed to deliver the AAV-CMV-A53T virus or PBS (control) into the right SNpc (AP, −3.2 mm; ML, −1.3 mm; DV, −4.0 mm from the bregma) of the mice. The injections were administered at a rate of 0.2 μl/min, with a total volume of 1 μl. The procedure was conducted under general anesthesia induced by 1% isoflurane.
The mice were deeply anesthetized with 2% isoflurane and positioned on the operating table. After the abdomen was opened and the heart was exposed, the […] were perfused with saline, followed by 4% paraformaldehyde (PFA) in 0.1 M PBS. The mice were decapitated, and the brains were excised from the skull. Excised brains were postfixed in 4% PFA overnight at 4 °C and dehydrated in 30% sucrose for 48 h. Coronal hippocampal sections were cut at 30 µm thickness with a cryostat and stored in storage solution. For the ALS experiments, lumbar spinal cords (L2–L5) were also carefully dissected and immediately immersed in 4% PFA for postfixation. The sections were fully washed in 0.1 M PBS and incubated for 1 h in blocking solution (0.3% Triton X-100, 2% donkey and goat serum in 0.1 M PBS). Next, a mixture of primary antibodies in the blocking solution was used for immunostaining on a shaker overnight at 4 °C. The sections were washed in PBS three times. After washing, the sections were incubated with the corresponding fluorescent secondary antibodies for 1 h at RT. DAPI staining was performed by adding a DAPI solution (1:2000) during the second washing step. After the washing step was complete, the sections were mounted on cover slides with mounting medium. A series of fluorescence images were obtained with an LSM900 (Zeiss, Germany) confocal microscope or Lattice SIM Elyra 7 (Zeiss, Germany). The 15–22 μm Z stack images in 1–2 μm steps were processed for image analysis, which was performed via the ImageJ (NIH, US) and ZEN digital imaging for light microscopy blue system (Zeiss, Germany) programs. The primary antibodies used were as follows: chicken anti-GFAP (1:500, Millipore, ab5541), rabbit anti-amyloid beta (1:500, Abcam, ab2539), mouse anti-NeuN (1:200, Millipore, ab377), rabbit anti-Hbβ (1:200, Abcam, ab214049), mouse anti-Hbβ (1:200, Santacruz, sc-21757), mouse anti-MAOB (1:200, Santacruz, sc-515354), mouse anti-8-OhdG (1:500, Santacruz, sc-393871), rabbit anti-TH (1:500, Pelfreez, p40101), and mouse anti-TH (1:200, Sigma, T2928). The following secondary antibodies from Jackson were diluted (1:500) in blocking solution: donkey-anti-chicken 405, donkey-anti-chicken 647, donkey-anti-rabbit 488, donkey-anti-rabbit 594, donkey-anti-rabbit 647, donkey-anti-guinea pig 488, donkey-anti-guinea pig 647, donkey-anti-mouse 594, and donkey-anti-mouse 647. Serial confocal sections immunolabeled with GFAP were compiled into a maximal projection to assess the GFAP signal within the hippocampus (Z-stacked images, 15–22 μm Z stack images in 1–2 μm steps of brain sections). Sholl analysis, performed via the ImageJ plugin, automatically generated concentric circles with 10-μm spacing from the nucleus (soma) to the farthest astrocytic process. This analysis quantified the intersections of GFAP-labeled processes within each circle, calculating the ramification index and ending radius, enabling the evaluation of astrocytic hypertrophy and morphological changes, as previously described.[78] In the focal GiD mouse model, NeuN-positive CA1 pyramidal neurons were quantified within a 50 × 50 μm^2 region via ImageJ to determine the number of CA1 pyramidal neurons.
For the SNpc, astrocytes and dopaminergic neurons were analyzed separately. The SNpc region was manually reconstructed using anatomical landmarks and TH or GFAP signals. GFAP-positive astrocyte surfaces were reconstructed with surface details set to 0.6 μm, the diameter of the largest sphere at 2.0 μm, a manual threshold value minimum of 800, and diffusion transparency set to 60%. […]

C57BL/6 mice = test: Blood H2O2 measurement after LPS; format: in vivo, mouse; conditions: LPS 6 h + KDS12025 3 mg/kg i.p.
Method: C57BL/6 mice were intraperitoneally (i.p.) injected with lipopolysaccharide (LPS) and sacrificed at 2, 6, and 24 h post-injection. Blood was collected from the heart using a syringe pre-treated with 0.5 M EGTA to prevent coagulation. Plasma was separated by centrifuging the collected blood at 1,500 × g for 10 min at 4 °C. H2O2 levels in the plasma were quantified using the Amplex Red assay according to the manufacturer’s instructions. The H2O2 levels peaked at 6 h post-LPS injection. Subsequently, KDS12025 (3 mg/kg/day) was intraperitoneally administered concurrently with LPS at the 6 h time point, and plasma H2O2 levels were measured to assess the effect of the compound.

purified mouse RBCs = test: Isolated red blood cell H2O2 assay; format: cell-based; conditions: 1 µM H2O2
Method: RBCs were isolated following a modified version of the protocol described by Hanson et al. (2008). Whole blood was collected from male ICR mice (5–6 weeks old) via retro-orbital bleeding under isoflurane anesthesia. Blood was transferred using heparin-coated capillaries into EDTA-coated microcentrifuge tubes and centrifuged at 500 x g for 10 min. Plasma and buffy coat were removed, and the RBC pellet was washed three times with phosphate-buffered saline (PBS) containing 2% fetal bovine serum (FBS) to remove leukocytes and plasma components. The final RBC suspension was adjusted to 5 x 10^3 cells/µL, and cell concentration was verified using an automated hematology analyzer (Horiba Microsemi LC-662).
H2O2 was quantified using the ROS-Glo H2O2 Assay kit (Promega) according to the manufacturer’s protocol. RBCs were dispensed into white 96-well plates at a final volume 70 µL per well. KDS12025 was tested at final concentrations of 0.01, 0.1, and 1 µM, and co-treated with 1 µM H2O2. The ROS-Glo substrate was added simultaneously to all wells. Plates were incubated for 10 min at 37°C. After incubation, ROS-Glo detection reagent was added directly to each well. Plates were then incubated for 20 min at room temperature. Luminescence was measured using a microplate reader (SpectraMax) according to kit settings. Relative luminescence units (RLU) were background-subtracted and normalized to the RBC+ H2O2 only control group. All conditions were tested in triplicate. Results present the combined average of two independent experiments; each performed with the same experimental layout and controls.

In the case of `CNc1ccc(NCCc2ccccc2OC)cc1.Cl` [KDS12025, N^1-(2-methoxyphenethyl)-N^4-methylbenzene-1,4-diamine hydrochloride salt], the “mean intensity of Hbβ in GFAP-positive areas” value (A53T mice; A53T contra+KDS12025, Fig. 5p) is reported as 46.92±4.141, the “mean intensity of Hbβ in TH-positive areas” value (A53T mice; A53T contra+KDS12025, Fig. 5q) is reported as 61.58±2.401 and the “mean intensity of GFAP in GFAP-positive area” value (A53T mice; A53T contra+KDS12025, Fig. S12c) is reported as 82.69±4.999. For the same molecule, the “GFAP-positive area in the SNpc” value (A53T mice; A53T contra+KDS, Fig. 4j) was 25.28±2.892, the “mean GABA intensity in GFAP-positive areas” value (A53T mice; A53T contra+KDS) was 10.18±1.460 and the “TH-positive neuron counts per hemisphere” value (A53T mice; A53T contra+KDS) was 23.20±2.685. For the same molecule, the “mean intensity of Hbβ in GFAP-positive areas” value (A53T mice; A53T ipsi+KDS12025, Fig. 5p) was 34.98±2.564, the “mean intensity of Hbβ in TH-positive areas” value (A53T mice; A53T ipsi+KDS12025, Fig. 5q) was 55.65±3.378 and the “mean intensity of GFAP in GFAP-positive area” value (A53T mice; A53T ipsi+KDS12025, Fig. S12c) was 106.7±3.202. For the same molecule, the “GFAP-positive area in the SNpc” value (A53T mice; A53T ipsi+KDS, Fig. 4j) was 34.18±3.214, the “mean GABA intensity in GFAP-positive areas” value (A53T mice; A53T ipsi+KDS) was 5.531±0.9318 and the “TH-positive neuron counts per hemisphere” value (A53T mice; A53T ipsi+KDS) was 20.96±2.68. For the same molecule, the “GFAP-positive area in the SNpc” value (A53T mice; A53T+shHbβ::CaMKII+KDS12025, Fig. 6r) was 37.16±3.6, the “number of TH-positive neurons per hemisphere” value (A53T mice; A53T+shHbβ::CaMKII+KDS12025, Fig. 6s) was 18.5±1.3 and the “GFAP-positive area in the SNpc” value (A53T mice; A53T+shHbβ::GFAP+KDS12025, Fig. 6r) was 42.7±5.05. For the same molecule, the “number of TH-positive neurons per hemisphere” value (A53T mice; A53T+shHbβ::GFAP+KDS12025, Fig. 6s) was 16.75±2.75, the “plasma H2O2 level (Fig. S20r)” value (C57BL/6 mice) was “Control (0.3325±0.02161, n=6), LPS-6hrs (1.295±0.05323, n=6), LPS-6hrs+KDS (0.7847±0.08078, n=6) One-way ANOVA with Tukey's multiple comparisons test, F(2,15) = 70.74, p < 0.001 Control vs. LPS-6hrs, p < 0.001; Control vs. LPS-6hrs+KDS, p < 0.001; LPS-6hrs vs. LPS-6hrs+KDS, p < 0.001” and the “H2O2 level normalized to RBC+H2O2 only (Fig. S20t)” value (“H2O2 level normalized” below) (purified mouse RBCs; 0.01 µM) was 37.08±7.98. The “H2O2 level normalized” value (purified mouse RBCs; 0.1 µM) was 20.61±3.586 and the “H2O2 level normalized” value (purified mouse RBCs; 1 µM) was 7.116±4.5.
